Experimental data taken from patent publication US20250145627A1, “METTL3 Inhibitor and Composition, and Application of Same in Medicine” (XIZANG HAISCO PHARMACEUTICAL CO., LTD., priority 2022, published 2025).
Read-outs that look alike come from different tables or passages of the source.

How the values were obtained:
[1] = test system: MOLM-13 cells; assay: Cell proliferation test on MOLM-13 cells (Cellriter-Glo); assay type: cell-based; conditions: Homo sapiens
Experimental: Cell plating: Cells were plated when they grow to a logarithmic growth phase. The cells were collected and the cell density was adjusted to 6×10^4 cells/mL; then the cell suspension is then poured into a loading slot and added into a 96-well cell culture plate at 50 μL/well (3000 cells/well viable cells). Note: the cells in the loading slot were well mixed while plating; cell information and plating date were labeled on the 96-well plates. NC wells (control wells) and BG wells (background wells) were provided. […] 50 μL/well of the compounds were added to the 96-well plate in which the cells were already plated. Incubation was carried out at 37° C., 5% CO2 for a period of time. Cell proliferation test: After incubation in the incubator for a period of time, 50 μL of […]-Glo Reagent per well was added. The plate was shaken at room temperature (500 rpm), incubated for 10 min in the dark, and then the […] was measured with a microplate reader. The mean background value was calculated. [formula] […] Specific data were presented in the form of graphs.

[2] = Pharmacokinetic test in mice; assay type: in vivo; conditions: male C57 mice, plasma
Experimental: • 2.1 Experimental animals: male C57 mice, 18-20 g, 6 mice/compound or 12 mice/compound. • 2.2 Experimental design: the C57 mice were randomly grouped according to their body weights. The animals were fasted with water available for 12 to 14 h one day before the administration, and were fed 4 h after the administration.
Vehicle for intravenous administration: 5% DMA+5% Solutol+90% Saline; vehicle for intragastric administration: 0.5% MC; • (DMA: dimethylacetamide; Solutol: polyethylene glycol-15-hydroxystearate; Saline: physiological saline; MC: Methyl cellulose solution)
Before and after the administration, 0.06 mL of blood was taken from the orbit of the animals under isoflurane anesthesia and placed in an EDTAK2 centrifuge tube. The blood was centrifuged at 5000 rpm and 4° C. for 10 min to collect the plasma. The blood collection time points for the intravenous administration group and intragastric administration group were 0 min, 5 min, 15 min, 30 min, 1 h, 2 h, 4 h, 7 h and 24 h. Before analysis and detection, all samples were stored at −80° C.

[3] = target: T1, hERG potassium ion channel (Homo sapiens, UniProt Q12809); assay: Test for hERG potassium ion channel (manual patch-clamp, CHO cells); assay type: cell-based; conditions: CHO cells stably expressing hERG, whole cell patch-clamp, room temperature; read-out: IC50 for the inhibitory effect on hERG potassium channel current
T1 construct: expressed in transfected cells
T1 sequence (Q12809 whole entry): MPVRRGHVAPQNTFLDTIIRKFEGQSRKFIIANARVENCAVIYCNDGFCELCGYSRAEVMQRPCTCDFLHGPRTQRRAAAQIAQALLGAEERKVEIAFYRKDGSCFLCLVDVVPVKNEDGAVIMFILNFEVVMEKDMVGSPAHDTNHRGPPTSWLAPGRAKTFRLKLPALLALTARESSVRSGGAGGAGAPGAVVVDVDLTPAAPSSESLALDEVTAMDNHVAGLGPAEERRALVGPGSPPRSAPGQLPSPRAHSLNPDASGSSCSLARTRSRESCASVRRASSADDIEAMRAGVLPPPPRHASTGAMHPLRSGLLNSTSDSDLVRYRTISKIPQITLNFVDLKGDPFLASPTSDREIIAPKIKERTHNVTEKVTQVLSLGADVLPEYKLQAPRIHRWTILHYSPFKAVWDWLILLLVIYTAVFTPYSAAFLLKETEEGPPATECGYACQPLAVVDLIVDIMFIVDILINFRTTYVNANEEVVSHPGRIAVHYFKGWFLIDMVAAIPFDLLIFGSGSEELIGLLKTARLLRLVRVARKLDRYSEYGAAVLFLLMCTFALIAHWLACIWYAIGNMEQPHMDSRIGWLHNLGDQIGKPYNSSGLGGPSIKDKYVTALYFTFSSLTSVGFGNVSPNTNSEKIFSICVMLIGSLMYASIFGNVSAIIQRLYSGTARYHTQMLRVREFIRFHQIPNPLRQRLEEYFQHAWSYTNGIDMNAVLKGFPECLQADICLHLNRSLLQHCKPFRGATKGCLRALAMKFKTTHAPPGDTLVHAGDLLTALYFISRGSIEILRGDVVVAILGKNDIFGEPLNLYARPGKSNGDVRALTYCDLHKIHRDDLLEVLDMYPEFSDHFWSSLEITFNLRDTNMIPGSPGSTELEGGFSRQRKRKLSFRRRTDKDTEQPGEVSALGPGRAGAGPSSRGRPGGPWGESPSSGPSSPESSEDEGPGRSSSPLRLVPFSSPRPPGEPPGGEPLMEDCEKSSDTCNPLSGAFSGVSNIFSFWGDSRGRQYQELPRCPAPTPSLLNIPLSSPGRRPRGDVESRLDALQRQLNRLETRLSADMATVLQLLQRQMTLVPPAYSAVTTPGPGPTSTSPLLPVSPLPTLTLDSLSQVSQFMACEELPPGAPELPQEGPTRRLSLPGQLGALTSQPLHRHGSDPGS
Source text: Experimental platform: electrophysiological manual patch-clamp system Cell line: Chinese hamster ovary (CHO) cell lines stably expressing hERG potassium ion channel
Experimental method: in CHO (Chinese Hamster Ovary) cells stably expressing hERG potassium channel, whole cell patch-clamp technique was used to record hERG potassium channel current at room temperature. The glass microelectrode was made of a glass electrode blank (BF150-86-10, Sutter) by a puller. The tip resistance after filling the liquid in the electrode was about 2-5 MO. The glass microelectrode can be connected to the patch-clamp amplifier by inserting the glass microelectrode into an amplifier probe. The clamping voltage and data recording were controlled and recorded by the pClamp 10 software through a computer. The sampling frequency was 10 kHz, and the filtering frequency was 2 kHz. […]
Data processing: Data analysis processing was carried out by using pClamp 10, GraphPad Prism 5 and Excel software. The inhibition degree of hERG potassium current (peak value of hERG tail current induced at −50 mV) at different compound concentrations was calculated by the following formula: […]
Compound IC50 was calculated using GraphPad Prism 5 software by fitting according to the following equation: […]

[4] = MOLM-13, read-out: IC50 on MOLM-13 cells
[5] = MOLM-13 cells, maximum detection concentration 10 μM, read-out: IC50 of compounds on MOLM-13 cells

| SMILES | IC50 [1, 5] [nM] | other results |
| --- | --- | --- |
| Cn1ccn2c(=O)cc(C(=O)NCc3ccc4cc(CNCC56CC(F)(C5)C6)[nH]c4c3)nc12 [Compound 3] | < 2000 | IC50 [1, 4]: 230 nM |
| [2H]C([2H])([2H])n1ccn2c(=O)cc(C(=O)NCc3ccc4cc(CNCC56CC(F)(C5)C6)[nH]c4c3)nc12 [Compound 4] | < 2000 | IC50 [1, 4]: 160 nM |
| O=C(NCc1cc2[nH]c(CNCC3CCC3)cc2s1)c1cc(=O)n2cccc(F)c2n1 [Compound 18] | 2000 to 10000 | – |
| O=C(NCc1cc2[nH]c(CNC3CCCCC3)cc2s1)c1cc(=O)n2ccccc2n1 [Compound 20] | 2000 to 10000 | – |
| CC(C)(C)CNCc1cc2sc(CNC(=O)c3cc(=O)n4ccccc4n3)cc2[nH]1 [Compound 22] | 2000 to 10000 | – |
| O=C(NCc1ccc2cc(CNCC34CC(F)(C3)C4)[nH]c2c1)c1cc(=O)n2ccccc2n1 [Compound 23 in WO 2021111124] | – | F ([2]; i.g. 10 mg/kg): 31.6%; AUC(0-t) ([2]; mouse, iv, i.v. 2.5 mg/kg): 730 ng·h/mL; clearance ([2]; mouse, iv, i.v. 2.5 mg/kg): 57 mL/min/kg; Vd ([2]; mouse, iv, i.v. 2.5 mg/kg, read-out: Vdss): 2.21 L/kg; AUC(0-t) ([2]; mouse, po, i.g. 10 mg/kg): 923 ng·h/mL |
| Cn1ccn2c(=O)cc(C(=O)NCc3ccc4cc(CNCC5CCC5)[nH]c4c3)nc12 [Trifluoroacetate of compound 1] | < 2000 | – |
| O=C(NCc1ccc2cc(CNCC3CCC3)[nH]c2c1)c1cc(=O)n2cc[nH]c2n1 [Trifluoroacetate of compound 2] | 2000 to 10000 | – |
| O=C(NCc1ccc2cc(CNCC3CCC3)[nH]c2c1)c1cc(=O)n2ccn(CC3CC3)c2n1 [Trifluoroacetate of compound 5] | 2000 to 10000 | – |
| CC(C)n1ccn2c(=O)cc(C(=O)NCc3ccc4cc(CNCC5CCC5)[nH]c4c3)nc12 [Trifluoroacetate of compound 6] | 2000 to 10000 | – |
| CCn1ccn2c(=O)cc(C(=O)NCc3ccc4cc(CNCC56CC(F)(C5)C6)[nH]c4c3)nc12 [Trifluoroacetate of compound 8] | – | IC50 ([1]; MOLM-13, read-out: IC50 of compounds on MOLM-13 cells): < 2000 nM |
| CCn1ccn2c(=O)cc(C(=O)NCc3ccc4cc(CNCC5CCC5)[nH]c4c3)nc12 [Trifluoroacetate of compound 9] | 2000 to 10000 | – |
| C#CCn1ccn2c(=O)cc(C(=O)NCc3ccc4cc(CNCC5CCC5)[nH]c4c3)nc12 [Trifluoroacetate of compound 10] | < 2000 | – |
| O=C(NCc1ccc2cc(CNCC3CCC3)[nH]c2c1)c1cc(=O)n2ccn(C3CC3)c2n1 [Trifluoroacetate of compound 11] | 2000 to 10000 | – |
| O=C(NCc1cc2[nH]c(CNCC3CCC3)cc2s1)c1cc(=O)n2ccccc2n1 [Trifluoroacetate of compound 12] | < 2000 | IC50 [3]: > 30000 nM |
| O=C(NCc1cc2[nH]c(CNCC34CC(F)(C3)C4)cc2s1)c1cc(=O)n2ccn(C(F)F)c2n1 [Trifluoroacetate of compound 14] | 2000 to 10000 | – |
| O=C(NCc1cc2[nH]c(CNCC3CCC3)cc2s1)c1cc(=O)n2cc(F)ccc2n1 [Trifluoroacetate of compound 16] | 2000 to 10000 | – |
| O=C(NCc1cc2[nH]c(CNCC3CCC3)cc2s1)c1cc(=O)n2ccc(C3CC3)cc2n1 [Trifluoroacetate of compound 17] | 2000 to 10000 | – |
